Experimental data reported in patent US8444858B2, “Control of development of biofilms in industrial process water” (A.Y. Laboratories Ltd., priority 2001, dated 2013).
Read-outs that look alike come from different tables or passages of the source.

How the values were obtained:
biofilm = assay: Waste water fouling control in a 7 km pipe, Hazen-Williams coefficient
Protocol: Treated wastewater was piped from a wastewater treatment plant to a location 7 kilometers away.
(The Hazen-Williams coefficient is used to express water flow through industrial pipes. It is calculated using the formula
[formula] wherein P is the friction pressure drop expressed in pounds per square inch per 1000 feet of pipe length, B is the flow rate in barrels per hour, s is the specific gravity of the liquid, C=a friction factor (the Hazen-Williams coefficient), and d is the internal diameter of the pipe in inches. P and B are measured for a given pipe, s and d are treated as constants, and C is calculated. The results are presented as the Hazen-Williams coefficient.
Waste water (up to 10 m^3/h) was used to appropriately dilute both chemicals. An on-line pH meter controlled the production process and the hypochlorite feeding rate to ensure the production of a stable biofilm inhibiting substance. The biofilm inhibiting substance was injected into the treated waste pipe as it was produced. Concentration of the biofilm inhibiting substance stock solution was 3000-4000 ppm; the pH was maintained at 9.5-10.

catalase (Merck) = assay: Inactivation of catalase, residual H2O2 laboratory test; type: biochemical
Protocol: Freshly prepared biofilm inhibiting substance was added to the appropriate flasks containing diluted catalase at a pre-defined feed rate. The contents of the containers were mixed for 60 minutes at room temperature prior to addition of H2O2 (to a final H2O2 concentration of 3.5 g/l). After addition of the H2O2, the mixture was allowed to mix for 30 minutes at room temperature, at which point H2O2 residues were measured in each flask in accordance with the Dr. Lange Cuvette Test LCW 058, measured with LASA 20 (based on Jander/Blasius: Lehrbach der Analytischen and Praparative Anorganischen Chemie, as described in the Handbook of Photometrical Operation Analysis (October 1997)).
Sodium hypochlorite was diluted in DI water to a final concentration of 6000 ppm expressed as total chlorine. Ammonium bromide solution (equimolar to 1.1 mole of the diluted sodium hypochlorite solution, 10% excess on a molar basis) and ammonium chloride solution (equimolar to 1.1 mole of the diluted hypochlorite solution, 10% excess on a molar basis) were prepared. The diluted hypochlorite (50 ml) was added dropwise to 50 ml of the appropriate ammonium salt while the pH was constantly measured. The biofilm inhibiting substance concentration in the produced stock solution was immediately measured and the biofilm inhibiting substance at the appropriate feed level was immediately added to the test flasks.

H2O2-degrading enzymes = tested on: H2O2-degrading enzymes
Protocol: (§1) The reaction pH was Maintained at 9.8-10.0. The Production process was controlled to ensure synchronous metering of the two chemicals, continuous mixing at the predetermined molar ratio and reproducible production of a stable biofilm inhibiting substance stock solution for the duration of the trial and longer. […] After 850 minutes the dosing rate was reduced to 85 g/ton expressed as total Cl2 by feeding the biofilm inhibiting substance semi-continuously. Various parameters were monitored during start-up of the trial: Residual biofilm inhibiting substance was measured (using a Hach pocket colorimeter, total Cl2, based on the DPD method adapted from Standard Methods for Examination of Waste and Waste Water). Residual hydrogen peroxide was measured using either LASA 20 with the LCW 085 method, based on the method of Jander/Blasius, Lehrbuch der Analytischen and Praparative Anorganischen Chemie, as described in the Handbook of Photometrical Operation Analysis by Dr. Lange for the LASA 20, October 1997 (in cases of high concentration), or Merck Test Strips (0.5-25 ppm). When necessary, samples were diluted with DI water.
(§2) The activity of H2O2-degrading enzymes in the process water was measured according to the following procedure: a commercial solution of H2O2 was diluted with DI water to a final concentration of 100 g/l water (10%). One ml of the diluted H2O2 solution was added to 9 ml of a sample taken from the treated de-inking process water to form a final feed rate of 10 g/l H2O2. The combined sample was incubated at room temperature for 15 minutes, at which time residual H2O2 was measured. Hydrogen peroxide diluted in DI water served as a control. […] Adenosine triphosphate (ATP) measurements in Table 6 are based on the following process: during the change from ATP to Adenosine monophosphate (AMP) in the presence of luciferin and luciferase, a defined quantity of light is emitted per ATP molecule. This emitted light is measured by a photometer. The results are given in relative terms and are thus relative and not absolute (RLU=relative light unit). The values can be correlated with microbial activity in the sense that for high viable counts, a high ATP measurement is obtained, and vice versa.

[1] = tested on: planktonic microorganisms
Protocol: as §1, §2

[2] = tested on: microorganisms, principally bacteria; details: for silo/slime formers: Plate Count agar with high excess of glucose; for silo/total count: R2A Agar
Protocol: Process water samples were drawn and immediately inactivated with sodium thiosulfate to degrade any residue of the biofilm inhibiting substance. Samples were then serially ten-fold diluted in a Trypton (DIFCO) saline dilution medium. The diluted samples were plated in molten R2A Agar (hereinafter=“total count”) and in molten Plate Count agar containing a high excess of glucose (hereinafter “slime formers”). The agar solidified at room temperature and the plates were incubated at 35° C. for 48 h.

[3] = time 100 min, continuous feed 170 g/ton as total Cl2
[4] = time 240 min, continuous feed 170 g/ton as total Cl2
[5] = time 850 min, continuous feed 170 g/ton as total Cl2
[6] = time 1500 min, semi-continuous feed 85 g/ton as total Cl2 since 850 min
[7] = day 1 of trial, cleaning period
[8] = day 2 of trial, cleaning period
[9] = day 3 of trial, cleaning period
[10] = day 4 of trial, cleaning period
[11] = day 6 of trial, cleaning period
[12] = day 7 of trial, cleaning period
[13] = day 8 of trial, cleaning period
[14] = day 9 of trial, cleaning period
[15] = day 10 of trial, cleaning period
[16] = day 13 of trial, cleaning period
[17] = day 16 of trial, clean paper machine
[18] = day 17 of trial, clean paper machine
[19] = day 20 of trial, clean paper machine
[20] = day 21 of trial, clean paper machine
[21] = day 24 of trial, clean paper machine
[22] = day 27 of trial, clean paper machine

bromide activated chloramine [Fuzzicide BAC]
Hazen-Williams coefficient (HW) maintenance (biofilm; 10 ppm as total chlorine for three hours once a week, over a period of months, after cleaning): constant value | Hazen-Williams coefficient (HW) (biofilm; 10 ppm as total chlorine once a day for three hours for 6 consecutive days, HW before ~90): ~104 | Hazen-Williams coefficient (HW) (biofilm; combination of pigging and 10 ppm (as total Cl2) once a day for three hours, HW before ~104): ~116 | Residual H2O2 concentration, % of 3.5% g/l (catalase (Merck); BIS 8.1 ppm as total chlorine, catalase 26 units/ml, 60 min preincubation, 30 min after H2O2): 21.4 % of 3.5% g/l | Residual H2O2 concentration, % of 3.5% g/l (catalase (Merck); BIS 60 ppm as total chlorine, catalase 0 units/ml (no enzyme)): 100 % of 3.5% g/l | Residual H2O2 concentration, % of 3.5% g/l (catalase (Merck); BIS 60 ppm as total chlorine, catalase 26 units/ml): 100 % of 3.5% g/l | Residual H2O2 concentration, % of 3.5% g/l (catalase (Merck); BIS 140 ppm as total chlorine, catalase 26 units/ml): 100 % of 3.5% g/l | Reduction in Catalase Activity, as % of initial H2O2 concentration (H2O2-degrading enzymes; time 0 min (start of dosing, baseline), 10 g/l H2O2 added to sample, 15 min): 37.6% | Reduction in Catalase Activity, as % of initial H2O2 concentration (H2O2-degrading enzymes; [3]): 17.8% | Reduction in Catalase Activity, as % of initial H2O2 concentration (H2O2-degrading enzymes; [4]): 54.7% | Reduction in Catalase Activity, as % of initial H2O2 concentration (H2O2-degrading enzymes; [5]): 92% | Reduction in Catalase Activity, as % of initial H2O2 concentration (H2O2-degrading enzymes; [6]): 135.1% | ATP (RLU) ([1]; time 0 min (start of dosing, baseline)): 132276 RLU | ATP (RLU) [1, 3]: 6340 RLU | ATP (RLU) [1, 4]: 2861 RLU | ATP (RLU) [1, 5]: 535 RLU | ATP (RLU) [1, 6]: 3568 RLU | silo/slime formers [2, 7]: 1.0 × 10^1 cfu | silo/total count [2, 7]: 1 × 10^0 cfu | silo/slime formers [2, 8]: 5.92 × 10^3 cfu | silo/total count [2, 8]: 5.68 × 10^4 cfu | silo/slime formers [2, 9]: 2.0 × 10^2 cfu | silo/total count [2, 9]: 4.8 × 10^4 cfu | silo/slime formers [2, 10]: 1.0 × 10^0 cfu | silo/total count [2, 10]: 7.6 × 10^3 cfu | silo/slime formers [2, 11]: 1.2 × 10^2 cfu | silo/total count [2, 11]: 3.8 × 10^3 cfu | silo/slime formers [2, 12]: 1.0 × 10^0 cfu | silo/total count [2, 12]: 4.0 × 10^3 cfu | silo/slime formers [2, 13]: 4.0 × 10^1 cfu | silo/total count [2, 13]: 1.68 × 10^3 cfu | silo/slime formers [2, 14]: 2.2 × 10^2 cfu | silo/total count [2, 14]: 5.0 × 10^3 cfu | silo/slime formers [2, 15]: 1.0 × 10^0 cfu | silo/total count [2, 15]: 1.18 × 10^3 cfu | silo/slime formers [2, 16]: 1.0 × 10^1 cfu | silo/total count [2, 16]: 2.4 × 10^3 cfu | silo/slime formers [2, 17]: 1.0 × 10^0 cfu | silo/total count [2, 17]: 2.0 × 10^2 cfu | silo/slime formers [2, 18]: 1.0 × 10^0 cfu | silo/total count [2, 18]: 6.0 × 10^1 cfu | silo/slime formers [2, 19]: 1.0 × 10^0 cfu | silo/total count [2, 19]: 3.0 × 10^2 cfu | silo/slime formers [2, 20]: 1.0 × 10^0 cfu | silo/total count [2, 20]: 7.5 × 10^2 cfu | silo/slime formers [2, 21]: 1.0 × 10^0 cfu | silo/total count [2, 21]: 1.0 × 10^2 cfu | silo/slime formers [2, 22]: 1.0 × 10^0 cfu | silo/total count [2, 22]: 1.1 × 10^2 cfu | viable counts in process water samples taken from the silo ([2]; initial cleaning period, irrespective of high or low residue of Fuzzicide BAC): 10^3-10^4 viable cells per ml
